In US8288374B2, “Medicinal composition containing benzo[a]phenoxazine compound as the active ingredient for prevention or treatment of protozoal disease” (Hoshi University, priority 2008, dated 2012):
≈ marks a conversion by molar mass, not a printed value. Read-outs that look alike come from different tables or passages of the source.

Assays:
[1] = tested on: Trypanosoma cruzi (Tulahuen C2C4 strain); experiment: American trypanosome protozoa growth inhibition screening test; format: cell-based; details: Trypanosoma cruzi, Table 5, in rat L6 cells, 96 hours, CPRG/Nonidet, read-out: 50% Growth inhibition concentration Trypanosoma cruzi
Method: In the present experiment, amastigote and trypomastigote infected with rat L6 cells of protozoa of Trypanosoma cruzi (Tulahuen C2C4 starin) were used. As medium used in the test, RPMI 1640 medium containing L6 cells was supplemented so that L-glutamine (200 mM) become 1%, fetal bovine serum becomes 10%, which was cultured under CO2 concentration 5%, at 37° C.
The compounds of the present invention to be used in the present test and the positive control drug (benznidazole) were dissolved in DMSO to make a test solution of a predetermined concentration.
A medium containing 5×10^3 protozoa was added to wells of a 96-well culture plate, and pre-cultured for 48 hours. After replacing the medium, test solution containing drug of a predetermined concentration or a drug-free DMSO was added. Test solutions were taken by duplicates.
After culturing the culture plate in an incubator for 96 hours, growth inhibition activity was tested. Test was conducted as follows. 50 μL of CPRG/Nonidet was added to each well, and allowed to rest for 2 to 6 hours. Next, the culture plate was placed on a fluorescent micro-plate reader. The absorbance was measured at 540 nm, and the trypanosome infection rate of the test solution added group and control group were calculated.
(§1) Growth inhibition rate (%)={1−(b−a)/(c−a)}×100 • a: early infection rate • b: infection rate when test solution was added • c: infection rate of the control

Rat L6 cells = experiment: Growth inhibition test of rat L6 cells; format: cell-based; details: Table 1, 72 hours, Alamar Blue, read-out: 50% Growth inhibition concentration Cytoxicity L6
Method: Rat derived-L6 cells (rat skeletal myoblast cell) were used. A medium, RPMI1640 medium was supplemented so that L-glutamin (200 mM) is 1%, and fetal bovine serum 10%, and the medium was cultured under CO2 concentration 5%, at 37° C.
The compounds of the present invention and the control drugs to be used in the test were dissolved in DMSO, to make a test solution of a predetermined concentration.
Pre-culture was conducted and medium containing cells which have entered the logarithmic growth phase was taken to wells of a 96-well culture plate. Then, a test solution containing drug of a predetermined concentration or a drug-free DMSO was added. Test solutions were taken by duplicates.
Culture plate was cultured for 72 hours in an incubator, to test the growth inhibition activity. Test was conducted as follows. 10 μL of Alamar Blue aqueous solution was added to each well, and the resultant was further cultured for 2 hours. Next, the culture plate was placed on a fluorescent micro-plate reader (Spectramax Gemeni XS; US Molecular Device), radiated at an excited wavelength of 536 nm. Fluorescent intensity was measured at 588 nm, and residual rate of L6 cells of the test solution added group, and that of the control was calculated.
Growth inhibition rate (%)={(C−A)/(B−A)}×100 • A: Primary cell count • B: cell count of control, 3 days after • C: cell count of wells added with a sample, 3 days after 4. Determination of Drug Efficacy Against Chloroquine Resistant-Plasmodium

[2] = tested on: Leishmania donovani (MHOM/ET/67/L82 strain); experiment: Leishmania protozoa growth inhibition screening test; format: cell-based; details: Leishmania donovani; Table 5; amastigotes, 72 hours, Alamar Blue; read-out: 50% Growth inhibition concentration Leishmania donovani
Method: In the present experiment, Leishmania donovani (MHOM/ET/67/L82 strain) was used. Protozoa was subcultured in Syrian Golden hamster, from which an amastigote was obtained. In the experiment, SM medium supplemented with 10% heat-treated bovine fetal serum was used, which was adjusted to pH 5.4, and cultured in an atmosphere of 5% CO2 concentration, at 37° C.
The compounds of the present invention to be used in the present test and the positive control drug (miltefosine) were dissolved in DMSO to make a test solution of a predetermined concentration.
After adding a medium containing a predetermined number of protozoa to wells of a 96-well culture'plate and pre-treating, concentration of the amastigote was measured with CASY cell analysis system (Scharfe, Germany). Then, test solution containing a drug of a predetermined concentration or a drug-free DMSO was added. Test solutions were taken by duplicates.
After culturing the culture plate for 72 hours in an incubator, growth inhibition activity was tested. Test was conducted as follows. 10 μL of Alamar Blue aqueous solution was added to each well, and the resultant was further cultured for 2 hours. Next, the culture plate was placed on a fluorescent micro-plate reader (Spectramax Gemeni XS; US Molecular Device), radiated at an excited wavelength of 536 nm. Fluorescent intensity was measured at 588 nm, and infection rate of leishmania protozoa of the test solution added group and control was calculated.
as §1

Plasmodium falciparum K1 = experiment: Chloroquine resistant-Plasmodium falciparum growth inhibition screening test; format: cell-based; details: EC50 against rat L6 cells / EC50 against P. falciparum K1
Method: In the present experiment, protozoa of plasmodium falsiparum K1 strain was used. RPMI-1640 medium sterilized with a filter to which human serum was added to be 5%, was used in the experiment. Malarial parasites were cultured under 3% O2 concentration, 4% CO2 concentration, 93% N2 concentration, and at a temperature of 37° C.
The compounds of the present invention to be used in the present test and the positive control drug (chloroquine) were dissolved in DMSO to make a test solution of a predetermined concentration. Cultured malaria parasite infected-erythrocytes were collected by centrifugation, and diluted with non-infected erythrocyte so that the early infection rate was 0.15%. Hematocrit level at that time was 2.5%.
200 μL of malaria infected solution was added to wells of a 96-well culture plate, and adjusted by adding a test solution containing drug of a predetermined concentration or a drug-free DMSO. Test solutions were taken by duplicates.
[…] […] Radiation intensity was measured with a beta plate liquid scintillation counter (Wallac), and malarial parasite infection rates of the test solution added group and the control group were calculated.
Growth inhibition rate (%)={1−(b−a)/(c−a)}×100 • a: early infection rate • b: infection rate when test solution was added • c: infection rate of the control 3. Growth Inhibition Test of Rat L6 Cells
Antimalarial activity of a sample was estimated from EC50 values of the sample against chloroquine resistant-Plasmodium falciparum and rat L6 cells. […] It means that the larger the value of the selection toxity, the less the risk of the side effect is. Chemotherapy index=(EC50 value of a sample against rat L6 cells)/(EC50 value of a sample against chloroquine resistant-Plasmodium falsiparum)

[3] = tested on: Trypanosoma brucei rhodesiense (STIB 900 strain); experiment: African trypanosome protozoa growth inhibition screening test; format: cell-based; details: read-out: 50% Growth inhibition concentration Trypanosoma brucei rhod.
Method: In the present experiment, protozoa of Tripanosoma brucei rhodensiense (STIB 900 Strain), a trypomastigote living in blood stream, was used. The medium used in the experiment was a MEM medium which was sterilized with a filter and supplemented with 25 mM N-2-hydroxyeihylpiperazine-2-ethansulfonic acid (HEPES), 1 g/L glucose, 1% MEM non-essential amino acid, 0.2 mM 2-mercaptoethanol, 2 mM sodium pyruvate, 0.1 mM hypoxanthine, and 15% heat-treated horse serum. The protozoa was cultured in an atmosphere of CO2 concentration 5%, at a temperature of 37° C.
The compounds of the present invention to be used in the present test and the positive control drug (melarsoprol) were dissolved in dimethylsulfoxide (DMSO) to make a test solution of a predetermined concentration.
A medium containing 8×10^3 protozoa, and a test solution containing a drug of a predetermined concentration of a drug-free DMSO were added to wells of a 96-well culture plate, and subsequently, medium was added so that the amount in each well becomes 100 μL. Test solutions were taken by duplicates.
After culturing the culture plate for 72 hours in an incubator, growth inhibition activity was tested. Test was conducted as follows. 10 μL of Alamar Blue aqueous solution was added to each well, and the resultant was further cultured for 2 hours. Next, the culture plate was placed on a fluorescent micro-plate reader (Spectramax Gemeni XS; US Molecular Device), radiated at an excited wavelength of 536 nm. Fluorescent intensity was measured at 588 nm, to calculate the trypanosome protozoa infected rate of the test solution added-group, and of the control group.
as §1

## O=C(Cn1ccnc1[N+](=O)[O-])NCc1ccccc1 [Benznidazole, benznidazole, reference compound]
[1]
  EC50: 0.225 µg/mL (≈ 0.866 µM)

## CCN(CC)c1ccc2nc3c4ccc(Br)cc4c(=Nc4ccncc4)cc-3oc2c1 [Compound 1G, 3-Bromo-N,N-diethyl-5-(pyridin-4-ylimino)-5H-benzo[a]phenoxazin-9-amine]
[1]
  EC50: > 30 µg/mL
Rat L6 cells
  EC50: > 90 µg/mL
[2]
  EC50: 19.1 µg/mL (≈ 40.4 µM)
other
  melting point: 269 to 271 °C
Plasmodium falciparum K1
  Selective toxicity: >18000
[3]; Table 5, 72 hours, Alamar Blue
  EC50: 61 µg/mL (≈ 129 µM)

## CCN(CC)c1ccc2nc3c4ccccc4c(=Nc4nc5ccc(Cl)cc5s4)cc-3oc2c1 [Compound 1I, 5-(6-Chlorobenzo[d]thiazol-2-ylimino)-N,N-diethyl-5H-benzo[a]phenoxazin-9-amine]
[1]
  EC50: > 30 µg/mL
Rat L6 cells
  EC50: > 90 µg/mL
[2]
  EC50: 19.6 µg/mL (≈ 40.5 µM)
other
  melting point: 229 to 231 °C
Plasmodium falciparum K1
  Selective toxicity: >210
[3]; Table 5, 72 hours, Alamar Blue
  EC50: 44.8 µg/mL (≈ 92.4 µM)

## CCN(CC)c1ccc2nc3c4ccccc4c(=Nc4cc(C)on4)cc-3oc2c1 [Compound 1J, N,N-Diethyl-5-(5-methylisoxazol-3-ylimino)-5H-benzo[a]phenoxazin-9-amine]
[1]
  EC50: 21.8 µg/mL (≈ 54.8 µM)
Rat L6 cells
  EC50: 36.8 µg/mL (≈ 92.4 µM)
[2]
  EC50: 1.86 µg/mL (≈ 4.67 µM)
other
  melting point: 195 to 196 °C
Plasmodium falciparum K1
  Selective toxicity: 7360
[3]; Table 5, 72 hours, Alamar Blue
  EC50: 11.8 µg/mL (≈ 29.6 µM)

## CCN(CC)c1ccc2nc3c4ccccc4c(=Nc4ncc(Cl)cc4Cl)cc-3oc2c1 [Compound 1K, 5-(3,5-Dichloropyridin-2-ylimino)-N,N-diethyl-5H-benzo[a]phenoxazin-9-amine]
[1]
  EC50: > 30 µg/mL
Rat L6 cells
  EC50: 83.1 µg/mL (≈ 179 µM)
[2]
  EC50: 8.13 µg/mL (≈ 17.5 µM)
other
  melting point: 192 to 193 °C
Plasmodium falciparum K1
  Selective toxicity: 2866
[3]; Table 5, 72 hours, Alamar Blue
  EC50: 38.6 µg/mL (≈ 83.3 µM)

## CCN(CC)c1ccc2nc3c4ccccc4c(=Nc4ncccn4)cc-3oc2c1 [Compound 1L, N,N-Diethyl-5-(pyrimidin-2-ylimino)-5H-benzo[a]phenoxazin-9-amine]
[1]
  EC50: 1.78 µg/mL (≈ 4.5 µM)
Rat L6 cells
  EC50: 5.4 µg/mL (≈ 13.7 µM)
[2]
  EC50: 0.662 µg/mL (≈ 1.67 µM)
other
  melting point: 208 to 210 °C
Plasmodium falciparum K1
  Selective toxicity: 2700
[3]; Table 5, 72 hours, Alamar Blue
  EC50: 0.804 µg/mL (≈ 2.03 µM)

## CCN(CC)c1ccc2nc3c4ccccc4c(=Nc4nc5ccc(OC)cc5s4)cc-3oc2c1 [Compound 1M, N,N-Diethyl-5-(6-methoxybenzo[d]thiazol-2-ylimino)-5H-benzo[a]phenoxazin-9-amine]
[1]
  EC50: > 30 µg/mL
Rat L6 cells
  EC50: 80.6 µg/mL (≈ 168 µM)
[2]
  EC50: 13.8 µg/mL (≈ 28.7 µM)
other
  melting point: 197 to 198 °C
Plasmodium falciparum K1
  Selective toxicity: 1492
[3]; Table 5, 72 hours, Alamar Blue
  EC50: 40 µg/mL (≈ 83.2 µM)

## Nc1nc(N)nc(Nc2ccc([As]3SCC(CO)S3)cc2)n1 (stereo not drawn) [Melarsoprol, melarsoprol, reference compound]
[3]; 72 h
  EC50: 0.0024 µg/mL

## CCCCCCCCCCCCCCCCOP(=O)([O-])OCC[N+](C)(C)C [Milfotesine, miltefosine, reference compound]
[2]
  EC50: 0.114 µg/mL (≈ 0.278 µM)
